The results in this text go back to patent US20180325850A1 (The Regents of the University of Michigan, priority 2017, published 2018).

Type in all cases: in vivo, rat
For assay [1], the system named is MI rats generated by ischemia reperfusion. As to the kind of experiment: Echocardiography of heart function (EF, FS) after ischemia reperfusion MI. As for the experimental part: 24 h post coronary ligation, a MI size of 33.59±3.54% of the left ventricle was induced in rats. […] Left ventricular internal diameter end diastole (LVIDd) and end systole (LVIDs) were measured perpendicularly to the long axis of the ventricle. EF and FS were calculated according to LVIDd and LVIDs.

Assay [2] has the same test system. Put plainly: Myocardial infarct size by triphenyltetrazolium chloride (TTC) staining. The following applies: two shots of VPA within 24 h of IR injury; versus saline controls. The method, then: Myocardial infarct size was determined by triphenyltetrazolium chloride (TTC) staining. The hearts were frozen rapidly and sliced into five 2 mm transverse sections. The sections were incubated at 37° C. with 1% TTC in phosphate buffer (pH 7.4) for 10 min, fixed in 10% formaldehyde solution, photographed and calculated using ImageJ software. The infarct size was expressed as a percentage of infarct volume versus left ventricle volume.

Another assay relates to Foxm1. Put plainly: RNA-seq of whole hearts one day after IR. From the text:
Recent studies indicate that neonatal CMs proliferate much more potently than adult CMs and Foxm1 appears to be a key factor in regulating neonatal CM proliferation by controlling Igf1 and cell cycle genes (Ref. 44; incorporated by reference in its entirety). […] These genes are mostly proliferation related genes. Other potential targets include anti-oxidative, pro-fibrotic, and CM structural genes. Foxm1 has also been reported to work with YAP1 to activate proliferation genes (Ref. 46; incorporated by reference in its entirety).

Assay [3] deals with IR rats. Put plainly: Plasma biochemical assay of LDH and creatine kinase (MI injury biomarkers). Conditions: 24 h after VPA treatment.
Method: To determine the possible protective effect of VPA after MI, MI rats were generated by ischemia reperfusion and VPA was administrated to the animals. […] Intra-peritoneal injection of 250 mg/kg VPA was conducted immediately after and 12 h after coronary ligation. Heart functional assays, MI assessment, and physiological assays were performed 24 h after VPA administration.
The subject of assay [4] is IR rats. As to the kind of experiment: Long-term (4-week) oral VPA treatment of IR rats, EF and FS. Conditions: oral VPA 250 mg/kg twice daily for 4 weeks, versus IR control animals.
Method: In addition, long-term (4-week) treatment of VPA was performed to IR rats.
Where [5] appears, read: IR rats, 250 mg/kg VPA intra-peritoneal immediately after and 12 h after coronary ligation, echocardiography at 24 h.

For `CCCC(CCC)C(=O)O` [VPA, valproic acid], in assay [1] (setting [5]), the “fractional shortening (FS)” value was 33.21±4.46% and the “left ventricle ejection fraction (EF)” value stood at 60.60±6.18%. Also, the “rescue of the functional loss caused by acute IR injury” value in assay [1] (VPA treatment within 12 h of IR injury, from EF and FS) is on record as “roughly 50%”. Also, the “reduction of infarct size” value in assay [2] is “around 45%”. For the same compound, the “Foxm1 expression, IR+VPA group versus no IR group” value in the assay with Foxm1 is 8 fold. In the assay with IR rats [3], the “plasma LDH release” value was found to be 63.07±23.83 U/L and the “plasma creatine kinase (CK) release” value was 158.31±43.53 U/L. Also, in the assay with IR rats [4], the “effect on ventricular remodeling and pumping function (EF, FS)” value is “protected the MI hearts from ventricular remodeling and weakening of the pumping function”.
